# Molecular target: recombinant human Cathepsin S (Homo sapiens, UniProt P25774)
# Experiment: Cathepsin S assay: inhibition of recombinant human cathepsin S, fluorogenic substrate Z-Val-Val-Arg-AMC
# Assay type: biochemical
# Method: Cathepsin S Assay Procedure
# To a 384 well microtitre plate is added 10 μl of a 100 μM solution of test compound in assay buffer (110 mM sodium acetate pH5.5, 5 mM EDTA, 5 mM dithiothreitol) with 10% dimethylsulfoxide (DMSO), plus 20 μl of 250 μM solution of the substrate
# Z-Val-Val-Arg-AMC (7-amido-coumarine derivative of the tripeptide N-benzyloxycarbonyl-Val-Val-Arg-OH) in assay buffer and 45 μl of assay buffer. 25 μl of a 2 mg/l solution of activated recombinant human cathepsin S, in assay buffer, is then added to the well, yielding a final inhibitor concentration of 10 μM. Enzyme activity is determined by measuring the fluorescence of the liberated aminomethylcoumarin at […] using 390 nm excitation, at 20 minutes. Percentage enzyme activity is calculated by comparison of this activity to that of a solution containing no inhibitor.
# recombinant human Cathepsin S, sequence (P25774 115-331): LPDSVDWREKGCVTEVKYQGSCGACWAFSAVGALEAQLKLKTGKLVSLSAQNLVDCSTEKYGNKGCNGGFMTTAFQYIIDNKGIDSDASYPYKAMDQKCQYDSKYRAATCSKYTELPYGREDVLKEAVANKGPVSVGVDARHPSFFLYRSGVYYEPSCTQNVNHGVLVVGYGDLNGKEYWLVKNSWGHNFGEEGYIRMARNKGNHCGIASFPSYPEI
row,Compound,IC50 [µM]
1,"CCN1CCN(CCCOc2ccc(-c3cc4c(ncn4C)c(C#N)n3)cc2C(F)(F)F)CC1 [Example 4f, 6-{4-[3-(4-Ethylpiperazin-1-yl)-prooxy]-3-(trifluoromethyl)-phenyl}-1-methyl-1H-imidazo[4,5-c]pyridine-4-carbonitrile]",< 0.1
2,"CN1CCN(CCCOc2ccc(-c3cc4c(ncn4C)c(C#N)n3)cc2C(F)(F)F)CC1(C)C [Example 4a, 1-Methyl-6-{3-(trifluoromethyl)-4-[3-(3,3,4-trimethylpiperazin-1-yl)-propoxy]-phenyl}-1H-imidazo[4,5-c]pyridine-4-carbonitrile]",< 0.1
3,"CN1CCN(CCCOc2ccc(-c3cc4c(ncn4C)c(C#N)n3)cc2C(F)(F)F)CC1 [Example 4e, 1-Methyl-6-{4-[3-(4-methylpiperazin-1-yl)-propoxy]-3-(trifluoromethyl)-phenyl}-1H-imidazo[4,5-c]pyridine-4-carbonitrile]",< 0.1
4,"CCN(CC)CCCOc1ccc(-c2cc3c(ncn3C)c(C#N)n2)cc1C(F)(F)F [Example 2u, 6-[4-(3-N,N-Diethylamino-propoxy)-3-(trifluoromethyl)-phenyl]-1-methyl-1H-imidazo[4,5-d]pyridine-4-carbonitrile]",< 0.1
5,"Cn1cnc2c(C#N)nc(-c3ccc(OCc4ccccn4)c(C(F)(F)F)c3)cc21 [Example 13c, 1-Methyl-6-[4-(pyridin-2-yl-methoxy)-3-(trifluoromethyl)-phenyl]-1H-imidazo[4,5-c]pyridine-4-carbonitrile]",< 0.1
6,"CNC(=O)C1CCN(CCCOc2ccc(-c3cc4c(ncn4C)c(C#N)n3)cc2C(F)(F)F)CC1 [Example 5a, 1-Methyl-6-(4-{3-[4-(N-methylaminocarbonyl)-piperidin-1-yl]-propoxy}-3-(trifluoromethyl)-phenyl)-1H-imidazo[4,5-c]pyridine-4-carbonitrile]",< 0.1
7,"CN1CCC2(CC1)NC(=O)N(CCOc1ccc(-c3cc4c(ncn4C)c(C#N)n3)cc1C(F)(F)F)C2=O [Example 11, 1-Methyl-6-{4-[2-(8-methyl-2,4-dioxo-1,3,8-triaza-spiro[4.5]dec-3-yl)-ethoxy]-3-(trifluoromethyl)-phenyl}-1H-imidazo[4,5-c]pyridine-4-carbonitrile]",< 0.1
8,"CCc1nccn1CCCOc1ccc(-c2cc3c(ncn3C)c(C#N)n2)cc1C(F)(F)F [Example 7b, 6-{4-[3-(2-Ethyl-imidazol-1-yl)-propoxy]-3-(trifluoromethyl)-phenyl}-1-methyl-1H-imidazo[4,5-c]pyridine-4-carbonitrile]",< 0.1
9,"Cn1cnc2c(C#N)nc(-c3ccc(OCCN4C(=O)NC5(CCNCC5)C4=O)c(C(F)(F)F)c3)cc21 [Example 12, 6-(4-[2-(2,4-Dioxo-1,3,8-triaza-spiro[4.5]dec-3-yl)-ethoxy]-3-(trifluoromethyl)-phenyl]-1-methyl-1H-imidazo[4,5-c]pyridine-4-carbonitrile]",< 0.1
10,"C[C@@H]1CN(CCOc2ccc(-c3cc4c(ncn4C)c(C#N)n3)cc2C(F)(F)F)C[C@H](C)N1 [Example 9d, 6-{4-[2-(cis-3,5-dimethyl-piperazin-1-yl)-ethoxy]3-(trifluoromethyl)-phenyl}-1-methyl-1H-imidazo[4,5-c]pyridine-4-carbonitrile]",< 0.1
11,"CN(C)CCCOc1ccc(-c2cc3c(ncn3C)c(C#N)n2)cc1C(F)(F)F [Example 2a, 6-[4-(3-Dimethylaminopropoxy)-3-(trifluoromethyl)-phenyl]-1-methyl-1H-imidazo[4,5-g]pyridine-4-carbonitrile]",< 0.1
12,CCN1CCN(CCCOc2ccc(-c3cc4[nH]cnc4c(C#N)n3)cc2C(F)(F)F)CC1 [Example 20f],< 0.1
13,"Cn1cnc2c(C#N)nc(-c3ccc(OCCCN4CCNC(C)(C)C4)c(C(F)(F)F)c3)cc21 [Example 4b, 6-{4-[3-(3,3-Dimethylpiperazin-1-yl)-propoxy]-3-(trifluoromethyl)-phenyl}-1-methyl-1H-imidazo[4,5-c]pyridine-4-carbonitrile]",< 0.1
14,Cn1cnc2c(C#N)nc(-c3ccc(OCCCO)c(C(F)(F)F)c3)cc21 [Example 1],< 0.1
15,"Cn1cnc2c(C#N)nc(-c3ccc(OCCCN4CCCC4)c(C(F)(F)F)c3)cc21 [Example 2c, 1-Methyl-6-[4-(3-pyrrolidin-1-ylpropoxy)-3-(trifluoromethyl)-phenyl]-1H-imidazo[4,5-c]pyridine-4-carbonitrile]",< 0.1

# Source: patent US7932251B2, “6-phenyl-1H-imidazo[4,5-c]pyridine-4-carbonitrile derivatives” (priority 2007, dated 2011)
